According to US20250339569A1, “CARBONIC ANHYDRASE IX LIGANDS” (priority 2021, published 2025):
One block for each compound: values may come before it. Starred links: 1 amine or outer side, 2 acyl side, 3 side chain; linkers in the order of their positions; H or OH if unused. Positions of bridges follow the written chain, without caps; N, C: chain ends. Non-standard residues stand in square brackets, D forms with d. Residues, ends and D or L forms follow the SMILES beside them. *: point of attachment. X47 = NC(=O)[C@H](CCCCNC(=O)CCCC[C@@H]1SC[C@@H]2NC(=O)N[C@@H]21)NC(=O)CCC(=O)NCCCOCCOCCOCCCN*; X69 = CC1(C)C(/C=C/C=C/C=C2\N(CCCCS(=O)(=O)O)c3ccccc3C2(C)C)=[N+](CCCCCC(=O)*)c2ccccc21; mXylylene = c1cc(C[*:1])cc(C[*:2])c1; X2 = O=C(CN1CCC(N[*:1])CC1)[*:2]

How the values were obtained:
[1] = biological target: T1, CAIX-expressing human HT-29 colorectal cancer cells (Homo sapiens, UniProt Q16790); test: FACS binding assay (EC50 determination, labeled compound); details: biotinylated or fluorophore-labeled compound, HT-29 cells, 4°C, 1 hour, read-out: pEC50 category (activity) (converted)
T1 construct: CAIX-expressing human HT-29 colorectal cancer cells; host or cells: HT-29 human colorectal cancer cells
Description: In order to determine binding of compounds according to the present invention to CAIX-expressing cells, a FACS binding assay was established.
CAIX-expressing human HT-29 colorectal cancer cells (DSMZ, RRID: CVCL_0320) were cultured in McCoys's 5A modified medium (Biochrom, #F1015) including 10% fetal calf serum (FCS), 2 mM L-glutamine, 100 U/ml penicillin and 100 μg/mL streptomycin. Cells were detached with Accutase (Biolegend, #423201) and washed in FACS buffer (PBS including 1% FCS). Cells were diluted in FACS buffer to a final concentration of 500.000 cells per ml. 200 μL of the cell suspension were transferred to a u-shaped non-binding 96-well plate (Greiner) and cells were washed in ice-cold FACS buffer.
When biotinylated compounds were used an additional incubation step with 1 μg/mL APC-Streptavidin (Miltenyi; #130-106-791) in 50 μL FACS buffer for 30 minutes on ice was performed.
Cells were washed twice with ice-cold FACS buffer and analyzed in an Attune NxT flow cytometer (Thermo Fisher). Median fluorescence intensities (MFI) of the APC/Cy5-channel were calculated by Attune NxT software. MFI values were plotted against peptide concentration and four parameter logistic (4PL) curve fitting and EC50/pEC50 or IC50/pIC50 calculations were performed using ActivityBase software.

[2] = test system: HT-29 (CRC) human cancer cell line xenograft; test: In vivo efficacy, uptake and tolerability of 177Lu-DPI-4452 (and 68Ga-DPI-4452) in HT-29 xenograft mouse model; set-up: species or system NMRI nude mice; details: HT-29 model; for tolerability of treatment: 177Lu 33 or 100 MBq or 3×33 MBq, 68Ga 10 MBq, i.v.; for uptake in tumor compared to kidney and liver: SPECT/CT 4 h (177Lu) or PET/CT 1 h (68Ga)
Description: (§1) The human colorectal cancer cell line HT-29 was cultured in Modified McCoy's 5a Medium supplemented with 10% FBS+1% Pen/Strep, and the human clear cell renal cancer cell line SK-RC-52 was cultured in RPMI-1640 GlutaMax-I supplemented with 10% FBS+1% Pen/Strep.
(§2) 2×10^6 cells were suspended in 100 μL PBS and Matrigel (1:1) and subcutaneously implanted into the neck of anesthetized female immunodeficient NMRI nude mice. Tumor volume (0.52×(length×width^2)) and animal weight was monitored twice weekly until 42 days post treatment initiation. Animals were humanely euthanized by cervical dislocation at predefined study or humane endpoints.
(§3) Animals were randomized into equal groups based on tumor volume and body weight. Treatments were initiated at a mean group tumor volume of 140-180 mm^3 and administered intravenously in the tail vein in a 100 μL dosing volume.
(§4) For both models, treatment groups consisted of 10 mice per group and received either a A) Single administration (day 1) of vehicle, B) Single administration (day 1) of 100 MBq of ^177Lu-DPI-4452, C) Single administration (day 1) of 33 MBq of ^177Lu-DPI-4452 or D) Three administrations (day 1, 8, 15) of 33 MBq of ^177Lu-DPI-4452. To correlate the ^68Ga-DPI-4452 signal with the ^177Lu-DPI-4452 uptake in tumors, an additional satellite group E of 6 mice received a single administration (day 1) of 10 MBq of ^68Ga-DPI-4452 followed by a single administration (day 8) of 33 MBq of ^177Lu-DPI-4452.
(§5) In groups A-D, radioactivity uptake (as % of injected dose/gram tissue) was assessed in the tumor, kidney, and liver in 3 animals per treatment group by whole-body SPECT/CT imaging (nanoScan SPECT/CT, Mediso) at 4 h after each ^177Lu-DPI-4452 administration, using the following parameters: • Imaging bed: Two/three mice bed • CT acquisition • Helical scan, 480 projections • Pitch=1.0 • Voltage=50 kVp • Exposure=170 ms • SPECT acquisition: • Pinhole SPECT • Energy windows: Primor Peak 208 full width: 20%, Secondary 112.9, Tertiary: 56.1 keV • Acquisition time: Up to 30 min • Frame time: 30 s
(§6) In the satellite mice (group E), radioactivity uptake (as % of injected dose/gram tissue) was assessed in the tumor, kidney, and liver in all 6 animals by both whole-body SPECT imaging at 4 h after administration of 33 MBq ^177Lu-DPI-4452, and by whole-body PET/CT imaging (nanoScan PET/CT, Mediso) at 1 h after 10 MBq ^68Ga-DPI-4452 administration, using the following parameters: • Animals per bed: 3 • PET acquisition time: Up to 10 min • PET acquisition start: 1 hour after injection
(§7) One week later the 6 satellite mice were then assessed again for radioactivity uptake by whole-body SPECT/CT imaging at 4 h after the single ^177Lu-DPI-4452 administration using parameters as described above.
(§8) For both models blood sampling for hematology was performed on all animals in group A-D at study day −1, 7, 14 and at study end. Each mouse was restrained and 200 μl blood was obtained from the sublingual or jugular vein in EDTA-tubes and analyzed on the sampling day on a ProCyte Dx Hematology Analyzer with mouse settings. In addition, for the SK-RC-52 model at study day 14 and at study end (day 43), excess blood from the hematology analysis was spun and plasma was obtained (centrifugation at 2000 g for 10 mins at 4° C. in EDTA tubes). The plasma was analyzed for creatinine and urea concentrations using a KONELAB PRIME 30i instrument (Thermo Fisher Scientific).

[3] = test system: SK-RC-52 (ccRCC) human cancer cell line xenograft; test: In vivo efficacy, uptake and tolerability of 177Lu-DPI-4452 (and 68Ga-DPI-4452) in SK-RC-52 xenograft mouse model; set-up: species or system NMRI nude mice; details: SK-RC-52 model; for tolerability of treatment: 177Lu 33 or 100 MBq or 3×33 MBq, 68Ga 10 MBq, i.v.; for uptake in tumor compared to kidney and liver: SPECT/CT 4 h (177Lu) or PET/CT 1 h (68Ga)
Description: as §1, §2, §3, §4, §5, §6, §7, §8

[4] = biological target: human CAIX (Homo sapiens, UniProt Q16790); test: In vitro SPR binding assay of DPI-4452, natLu-DPI-4452 and natGa-DPI-4452 to CAIX (anti-human Fc capture); set-up: purchased SinoBliological (Sino Biological) 10107-H02H; details: SPR
Description: Surface Plasmon Resonance (SPR) studies were performed on a Biacore™ T200 using a ligand capture approach. Basically, anti-human Fc antibodies were immobilized on the surface of a sensor chip and CAIX was captured on the functionalized surface via its Fc Tag.
Then, each compound was injected at increasing concentrations on the captured CAIX in order to measure the in real-time interaction of the compound to its target (i.e. the captured CAIX). The in real-time monitoring of the association and dissociation of the interaction gives access to the interaction kinetics parameters (i.e. the association and dissociation rate constants and the resulting affinity constants).
• A series S CM5 sensor chip was used (Cytiva). • All reagents used for the immobilization procedure were part of the Amine Coupling Kit, type 2 and/or the Human Antibody Capture Kit (Cytiva). The running buffer (HBS-EP+) was prepared by 10-fold dilution of the stock HBS-EP+ 10× solution (Cytiva). • Anti-human Fc antibodies stock solution (0.5 mg/mL in 0.15 M NaCl) was diluted in 10 mM sodium acetate pH 5.0 to a final concentration of 25 μg/mL directly into a plastic vial 7 mm. • Amine coupling reagents were transferred into plastic vials 7 mm as follow: • 95 μL of 0.4 M 1-ethyl-3-(3-dimethylaminopropyl)carbodiimide (EDC). • 95 μL of 0.1 M N-hydroxysuccinimide (NHS). • An empty plastic vial 7 mm was added in the Biacore™ sample rack for mixing. • 150 μL of 1 M ethamolamine-HCl, pH 8.5. • Plastic vials were closed with rubber caps and the sample rack was inserted into the Biacore™ T200 sample compartment. • The Biacore™ T200 Amine Wizard was used to immobilize the anti-Human Fc antibodies on the four flow-cells of a series S CM5 sensor chip simultaneously with defined contact time of 360 seconds and flow-rate of 5 μL/min. • The immobilization procedure was performed at 25° C., following Cytiva's recommendations, as described in Table 23.
This procedure allowed to reach immobilization levels between 6000 and 9000 RU of anti-human Fc antibodies on the sensor chip surface.
• CAIX (Sino Biological, 10107-H02H) stock solution was prepared from lyophilized material reconstituted with deionized water to a concentration of 0.25 μg/mL (3.69 μM), following the supplier recommendations. • CAIX working solution was obtained after dilution of CAIX stock solution with PBS-P+1×, 0.1% DMSO to a final concentration of 200 nM directly in a Biacore™ plastic vial.
• For each measurement, the raw surface plasmon resonance response (RU) was plotted against time (s) as a sensorgram using the Biacore™ T200 Control Software. • Raw data were corrected by double referencing with subtraction of the signal of both the reference flow-cell and the blank cycle. • The association and dissociation rate constants (ka and kd, respectively), as well as the dissociation constant KD and dissociation half-life t1/2 were determined from the corrected sensorgrams by fitting the data to a 1:1 Langmuir binding model with the Biacore™ T200 evaluation software.

Structure (SMILES): CC(C)C[C@@H]1NC(=O)[C@H](Cc2cccc(NC(=O)CCCS(N)(=O)=O)c2)NC(=O)[C@H](CC(=O)O)NC(=O)[C@H]2CCCN2C(=O)[C@H](CCC(=O)O)NC(=O)[C@@H](NC(=O)[C@H](CCC(N)=O)NC(=O)CN2CCN(C(=O)CN3CCN(CC(=O)O)CCN(CC(=O)O)CCN(CC(=O)O)CC3)CC2)CSCc2cccc(c2)CSC[C@@H](C(N)=O)NC(=O)[C@H](CO)NC(=O)[C@H](Cc2c[nH]c3ccccc23)NC(=O)[C@H]([C@@H](C)O)NC1=O [^68Ga-DPI-4452, metal not drawn]
tolerability of treatment [2]: well tolerated
uptake in tumor compared to kidney and liver [2]: Preferential tumor uptake
tolerability of treatment [3]: well tolerated
uptake in tumor compared to kidney and liver [3]: Preferential tumor uptake

Structure (SMILES): CC(C)C[C@@H]1NC(=O)[C@H](Cc2cccc(NC(=O)CCCS(N)(=O)=O)c2)NC(=O)[C@H](CC(=O)O)NC(=O)[C@H]2CCCN2C(=O)[C@H](CCC(=O)O)NC(=O)[C@@H](NC(=O)[C@H](CCC(N)=O)NC(=O)CN2CCN(C(=O)CN3CCN(CC(=O)O)CCN(CC(=O)O)CCN(CC(=O)O)CC3)CC2)CSCc2cccc(c2)CSC[C@@H](C(N)=O)NC(=O)[C@H](CO)NC(=O)[C@H](Cc2c[nH]c3ccccc23)NC(=O)[C@H]([C@@H](C)O)NC1=O [^177Lu-DPI-4452, metal not drawn]
white blood cells, lymphocytes and neutrophils versus vehicle ([2]; 33/100 MBq): relative suppression
tolerability of treatment [2]: well tolerated
uptake in tumor compared to kidney and liver [2]: Preferential uptake in the tumor compared to kidney and liver
white blood cells, lymphocytes and neutrophils versus vehicle ([3]; 33/100 MBq): relative suppression
creatinine and urea levels ([3]; plasma, day 14 and study end): No differences in creatinine and urea levels between treatment groups
tolerability of treatment [3]: well tolerated
uptake in tumor compared to kidney and liver [3]: Preferential uptake in the tumor compared to kidney and liver

Structure (SMILES): CC(C)C[C@@H]1NC(=O)[C@H](Cc2cccc(NC(=O)CCCS(N)(=O)=O)c2)NC(=O)[C@H](CC(=O)O)NC(=O)[C@H]2CCCN2C(=O)[C@H](CCC(=O)O)NC(=O)[C@@H](NC(=O)[C@H](CCC(N)=O)NC(=O)CN2CCN(C(=O)CN3CCN(CC(=O)O)CCN(CC(=O)O)CCN(CC(=O)O)CC3)CC2)CSCc2cccc(c2)CSC[C@@H](C(N)=O)NC(=O)[C@H](CO)NC(=O)[C@H](Cc2c[nH]c3ccccc23)NC(=O)[C@H]([C@@H](C)O)NC1=O [^natLu-DPI-4452, metal not drawn]
affinity of binding to CAIX [4]: subnanomolar affinity

Other lines, results leading:

EC50 [1]: 10 to 79.4 nM
Structure (SMILES): CC[C@H](C)[C@@H]1NC(=O)[C@H](CCC(=O)O)NC(=O)[C@@H](NC(=O)[C@H](CCC(N)=O)NC(=O)[C@@H](N)CCSC)CSCc2cccc(c2)CSC[C@@H](C(=O)NCCCOCCOCCOCCCNC(=O)CCC(=O)N[C@@H](CCCCNC(=O)CCCC[C@@H]2SC[C@@H]3NC(=O)N[C@@H]32)C(N)=O)NC(=O)[C@H]([C@@H](C)O)NC(=O)[C@H](C(C)C)NC(=O)[C@H](Cc2c[nH]c3ccccc23)NC(=O)CNC(=O)[C@H](CC(=O)O)NC(=O)[C@H](C(C)C)NC(=O)[C@H](Cc2c[nH]c3ccccc23)NC1=O [3BP-2775] (H-MQCEIWVDGWVTC-X47; linker 3-13 via mXylylene)

EC50 [1]: < 10 nM
Structure (SMILES): CSCC[C@H](N)C(=O)N[C@H](C(=O)N[C@@H](Cc1ccc(O)cc1)C(=O)N[C@H]1CSCc2cccc(c2)CSC[C@@H](C(=O)NCCCOCCOCCOCCCNC(=O)CCC(=O)N[C@@H](CCCCNC(=O)CCCC[C@@H]2SC[C@@H]3NC(=O)N[C@@H]32)C(N)=O)NC(=O)[C@H](CCC(N)=O)NC(=O)[C@H](Cc2c[nH]c3ccccc23)NC(=O)[C@H]([C@@H](C)O)NC(=O)[C@H](CC(C)C)NC(=O)[C@H](Cc2c[nH]c3ccccc23)NC(=O)[C@H](CC(=O)O)NC(=O)CNC(=O)[C@H](CCC(=O)O)NC1=O)C(C)C [3BP-2776] (H-MVYCEGDWLTWQC-X47; linker 4-13 via mXylylene)

EC50 [1]: < 10 nM
Structure (SMILES): CSCC[C@H](N)C(=O)N[C@H](C(=O)N[C@@H](Cc1ccc(O)cc1)C(=O)N[C@H]1CSCc2cccc(c2)CSC[C@@H](C(=O)NCCCOCCOCCOCCCNC(=O)CCC(=O)N[C@@H](CCCCNC(=O)CCCC[C@@H]2SC[C@@H]3NC(=O)N[C@@H]32)C(N)=O)NC(=O)[C@H](CO)NC(=O)[C@H](Cc2c[nH]c3ccccc23)NC(=O)CNC(=O)[C@H](CC(C)C)NC(=O)[C@H](Cc2c[nH]c3ccccc23)NC(=O)[C@H](CO)NC(=O)CNC(=O)[C@H](CCC(=O)O)NC1=O)C(C)C [3BP-2777] (H-MVYCEGSWLGWSC-X47; linker 4-13 via mXylylene)

EC50 [1]: < 10 nM
Structure (SMILES): CC[C@H](C)[C@@H]1NC(=O)[C@H](CCC(=O)O)NC(=O)[C@@H](NC(=O)[C@H](CCCNC(=N)N)NC(=O)[C@@H](N)CCSC)CSCc2cccc(c2)CSC[C@@H](C(=O)NCCCOCCOCCOCCCNC(=O)CCC(=O)N[C@@H](CCCCNC(=O)CCCC[C@@H]2SC[C@@H]3NC(=O)N[C@@H]32)C(N)=O)NC(=O)[C@H](CC(=O)O)NC(=O)[C@H](C(C)C)NC(=O)[C@H](Cc2c[nH]c3ccccc23)NC(=O)CNC(=O)[C@H](CC(=O)O)NC(=O)[C@H](C(C)C)NC(=O)[C@H](Cc2c[nH]c3ccccc23)NC1=O [3BP-2778] (H-MRCEIWVDGWVDC-X47; linker 3-13 via mXylylene)

EC50 [1]: < 10 nM
Structure (SMILES): CC(C)C[C@@H]1NC(=O)[C@H](Cc2c[nH]c3ccccc23)NC(=O)[C@H](CC(=O)O)NC(=O)[C@H]2CCCN2C(=O)[C@H](CCC(=O)O)NC(=O)[C@@H](NC(=O)[C@H](Cc2ccc(O)cc2)NC(=O)[C@@H](NC(=O)CN2CCC(NC(=O)CCCCC[N+]3=C(/C=C/C=C/C=C4\N(CCCCS(=O)(=O)O)c5ccccc5C4(C)C)C(C)(C)c4ccccc43)CC2)C(C)C)CSCc2cccc(c2)CSC[C@@H](C(N)=O)NC(=O)[C@H](CO)NC(=O)[C@H](Cc2c[nH]c3ccccc23)NC(=O)[C@H]([C@@H](C)O)NC1=O [3BP-4149, Cy5SO3-APAc-Val-Tyr-[Cys(3MeBn)-Glu-pro-Asp-Trp-Leu-Thr-Trp-Ser-Cys]-NH2] (X69-[X2]VYCE[dP]DWLTWSC-NH2; linker 4-13 via mXylylene)
